# Results from patent US20260069588A1, “VEPDEGESTRANT FOR USE IN TREATING CANCER” (Arvinas Operation, Inc., priority 2022, published 2026).
# Experiment: FIH Study Part A dose escalation: adverse events
# From the text: TEAEs and TRAEs from the clinical study database were coded to system organ class and preferred term using MedDRA version 22.0 and SAEs from the centralized safety database were coded using MedDRA version 25.0. The severity of adverse events was graded according to the NCI CTCAE version 5.0.
structure (smiles),measurement,setting,value
"O=C1CC[C@H](N2Cc3cc(N4CCN(CC5CCN(c6ccc([C@@H]7c8ccc(O)cc8CC[C@@H]7c7ccccc7)cc6)CC5)CC4)ccc3C2=O)C(=O)N1 [Compound A, (S)-3-(5-(4-((1-(4-((1R,2S)-6-hydroxy-2-phenyl-1,2,3,4-tetrahydronaphthalen-1-yl)phenyl)piperidin-4-yl)methyl)piperazin-1-yl)-1-oxoisoindolin-2-yl)piperidine-2,6-dione]",TRAE Nausea,200 mg (N=8),2 n
same,TRAE Vomiting,200 mg (N=8),1 n
same,TEAE Alanine aminotransferase increased,360 mg (N=15),1 n
same,TEAE Arthralgia,360 mg (N=15),2 n
same,TEAE Aspartate aminotransferase increased,360 mg (N=15),0 n
same,TEAE Back pain,360 mg (N=15),2 n
same,TEAE Constipation,360 mg (N=15),5 n
same,TEAE Decreased appetite,360 mg (N=15),4 n
same,TEAE Diarrhea,360 mg (N=15),4 n
same,TEAE Dizziness,360 mg (N=15),2 n
same,TEAE Fatigue,360 mg (N=15),4 n
same,TEAE Headache,360 mg (N=15),4 n
same,TEAE Hot flush,360 mg (N=15),2 n
same,TEAE Hyperglycemia,360 mg (N=15),2 n
same,TEAE Insomnia,360 mg (N=15),1 n
same,TEAE Nausea,360 mg (N=15),4 n
same,TEAE Pain in extremity,360 mg (N=15),1 n
same,TEAE Vomiting,360 mg (N=15),5 n
same,TRAE Arthralgia,360 mg (N=15),0 n
same,TRAE Constipation,360 mg (N=15),3 n
same,TRAE Decreased appetite,360 mg (N=15),2 n
same,TRAE Fatigue,360 mg (N=15),3 n
same,TRAE Hot flush,360 mg (N=15),1 n
same,TRAE Nausea,360 mg (N=15),3 n
same,TRAE Vomiting,360 mg (N=15),2 n
same,TEAE Alanine aminotransferase increased,500 mg (N=22),2 n
same,TEAE Arthralgia,500 mg (N=22),4 n
same,TEAE Aspartate aminotransferase increased,500 mg (N=22),1 n
same,TEAE Back pain,500 mg (N=22),6 n
same,TEAE Constipation,500 mg (N=22),10 n
same,TEAE Decreased appetite,500 mg (N=22),2 n
same,TEAE Diarrhea,500 mg (N=22),3 n
same,TEAE Dizziness,500 mg (N=22),2 n
same,TEAE Fatigue,500 mg (N=22),14 n
same,TEAE Headache,500 mg (N=22),3 n
same,TEAE Hot flush,500 mg (N=22),5 n
same,TEAE Hyperglycemia,500 mg (N=22),5 n
same,TEAE Insomnia,500 mg (N=22),4 n
same,TEAE Nausea,500 mg (N=22),9 n
same,TEAE Pain in extremity,500 mg (N=22),5 n
same,TEAE Vomiting,500 mg (N=22),4 n
same,TRAE Arthralgia,500 mg (N=22),2 n
same,TRAE Constipation,500 mg (N=22),3 n
same,TRAE Decreased appetite,500 mg (N=22),1 n
same,TRAE Fatigue,500 mg (N=22),9 n
same,TRAE Hot flush,500 mg (N=22),5 n
same,TRAE Nausea,500 mg (N=22),7 n
same,TRAE Vomiting,500 mg (N=22),3 n
same,TEAE Alanine aminotransferase increased,700 mg (N=4),0 n
same,TEAE Arthralgia,700 mg (N=4),0 n
same,TEAE Aspartate aminotransferase increased,700 mg (N=4),2 n
same,TEAE Back pain,700 mg (N=4),2 n
same,TEAE Constipation,700 mg (N=4),1 n
same,TEAE Decreased appetite,700 mg (N=4),1 n
same,TEAE Diarrhea,700 mg (N=4),1 n
same,TEAE Dizziness,700 mg (N=4),2 n
same,TEAE Fatigue,700 mg (N=4),2 n
same,TEAE Headache,700 mg (N=4),1 n
same,TEAE Hot flush,700 mg (N=4),0 n
same,TEAE Hyperglycemia,700 mg (N=4),1 n
same,TEAE Insomnia,700 mg (N=4),1 n
same,TEAE Nausea,700 mg (N=4),2 n
same,TEAE Pain in extremity,700 mg (N=4),0 n
same,TEAE Vomiting,700 mg (N=4),1 n
same,TRAE Arthralgia,700 mg (N=4),0 n
same,TRAE Constipation,700 mg (N=4),0 n
same,TRAE Decreased appetite,700 mg (N=4),0 n
same,TRAE Fatigue,700 mg (N=4),2 n
same,TRAE Hot flush,700 mg (N=4),0 n
same,TRAE Nausea,700 mg (N=4),1 n
same,TRAE Vomiting,700 mg (N=4),0 n
same,Grade 4 or Grade 5 TRAEs,6 Jun 2023,no Grade 4 or Grade 5 TRAEs
same,Grade 1 TEAEs,"6 Jun 2023, N=83",34.9%
same,Grade 1 TRAEs,"6 Jun 2023, N=83",41.0%
same,Grade 2 TEAEs,"6 Jun 2023, N=83",41.0%
same,Grade 2 TRAEs,"6 Jun 2023, N=83",24.1%
same,Grade 3 TEAEs,"6 Jun 2023, N=83",16.9%
same,Grade 3 TRAE electrocardiogram QT prolonged,"6 Jun 2023, N=83",2 patients
same,Grade 4 TEAEs,"6 Jun 2023, N=83",2.4%
same,Grade 5 TEAE,"6 Jun 2023, N=83",1.2%
same,TEAE of Grade ≥3,"6 Jun 2023, N=83",20.5%
same,patients with Grade 3 TRAEs,"6 Jun 2023, N=83",7.2%
same,patients with at least 1 TEAE,"6 Jun 2023, N=83",96.4%
same,patients with at least 1 TRAE,"6 Jun 2023, N=83",72.3%
same,SAEs,"6 Jun 2023, N=83, 11",13.3%
same,deaths,33 of 83 participants,39.8%
same,"SAE Procedural pain, Grade","Patient 1, 30 mg QD, onset day 30, Not related",3
same,"SAE Humerus fracture, Grade","Patient 2, 250 mg BID, onset day 59, Not related",3
same,"SAE Embolism venous, Grade","Patient 3, 360 mg QD, onset day 42, Possibly related, SUSAR",3
same,"SAE Colitis, Grade","Patient 4, 200 mg QD",1
same,"SAE Neutrophil count decreased, Grade","Patient 4, 200 mg QD",4
same,"SAE Stomatitis, Grade","Patient 4, 200 mg QD, onset day 79, Not related",3
same,"SAE Malignant pleural effusion, Grade","Patient 5, 250 mg BID, onset day 10",3
same,"SAE Cardiac arrest, Grade","Patient 5, 250 mg BID, onset day 26, Not related",5
same,"SAE Embolism, Grade","Patient 6, 360 mg QD, onset day 54, Unlikely related",3
same,"SAE Hypoglycemia, Grade","Patient 7, 500 mg QD, onset day 49, Not related",4
same,"SAE Acute kidney injury, Grade","Patient 8, 100 mg QD, onset day 118, Not related",3
same,TEAE Alanine aminotransferase increased,Total (N=78),8 n
same,TEAE Arthralgia,Total (N=78),14 n
same,TEAE Aspartate aminotransferase increased,Total (N=78),11 n
same,TEAE Back pain,Total (N=78),13 n
same,TEAE Constipation,Total (N=78),24 n
same,TEAE Decreased appetite,Total (N=78),12 n
same,TEAE Diarrhea,Total (N=78),13 n
same,TEAE Dizziness,Total (N=78),8 n
same,TEAE Fatigue,Total (N=78),26 n
same,TEAE Headache,Total (N=78),13 n
same,TEAE Hot flush,Total (N=78),11 n
same,TEAE Hyperglycemia,Total (N=78),10 n
same,TEAE Insomnia,Total (N=78),9 n
same,TEAE Nausea,Total (N=78),26 n
same,TEAE Pain in extremity,Total (N=78),10 n
same,TEAE Vomiting,Total (N=78),14 n
same,TRAE Arthralgia,Total (N=78),8 n
same,TRAE Constipation,Total (N=78),10 n
same,TRAE Decreased appetite,Total (N=78),8 n
same,TRAE Fatigue,Total (N=78),17 n
same,TRAE Hot flush,Total (N=78),8 n
same,TRAE Nausea,Total (N=78),20 n
same,TRAE Vomiting,Total (N=78),8 n
same,Grade 4 or Grade 5 TRAEs,cut-off 6 Jun 2022,no Grade 4 or Grade 5 TRAEs
same,patients reporting SAEs,cut-off 6 Jun 2022,8 of 78 patients
same,total SAEs,cut-off 6 Jun 2022,11 SAEs
same,Grade 1 TEAEs,"cut-off 6 Jun 2022, N=78",34.6%
same,Grade 1 TRAEs,"cut-off 6 Jun 2022, N=78",42.3%
same,Grade 2 TEAEs,"cut-off 6 Jun 2022, N=78",39.7%
same,Grade 2 TRAEs,"cut-off 6 Jun 2022, N=78",21.8%
same,Grade 3 TEAEs,"cut-off 6 Jun 2022, N=78",11.5%
same,Grade 3 hypertension,"cut-off 6 Jun 2022, N=78",2 patients
same,Grade 4 TEAEs,"cut-off 6 Jun 2022, N=78",3.8%
same,Grade 5 TEAE,"cut-off 6 Jun 2022, N=78",1.3%
same,TEAE of Grade ≥3,"cut-off 6 Jun 2022, N=78",16.7%
same,patients with Grade 3 TRAEs,"cut-off 6 Jun 2022, N=78",5.1%
same,patients with at least 1 TEAE,"cut-off 6 Jun 2022, N=78",91.0%
same,patients with at least 1 TRAE,"cut-off 6 Jun 2022, N=78",69.2%
same,TEAE leading to discontinuation,five of 83 patients,6.0%
